Here are results for three compounds from PMC8308845, “Discovery of Novel Chemical Series of OXA-48 β-Lactamase Inhibitors by High-Throughput Screening” (Pharmaceuticals, 2021).

For orientation: AC50 means the midpoint of the concentration-response curve, whichever way the signal moves. Low values mean activity at low concentration, high ones activity only at high concentration.

In experiment [1] the target is T1, OXA-48 (Klebsiella pneumoniae, UniProt Q6XEC0).
T1 construct: made in house; host or cells: E. coli BL21(DE3), T7 expression system
Put plainly: OXA-48 primary enzymatic assay (nitrocefin substrate, fluorescence-quenching readout). Format: biochemical. Particulars: dose–response, median of triplicate wells; 15 min preincubation, 25 µM nitrocefin. How it is done: After an initial pilot run (three plates, consisting of 960 randomly selected compounds), the primary screening of the subset plates was carried out at 20 µM in single point against OXA-48 enzyme in a nitrocefin-based assay, using the fluorescence-quenching readout. This enzymatic assay employs the cephalosporin nitrocefin as OXA-48 substrate and takes advantage of the fluorescent properties of white microtiter plates. Chromogenic nitrocefin is hydrolyzed by β-lactamases to yield a product with increased absorbance properties (~495 nm) that quenches the plate fluorescence by absorbing the plate’s emission light. In this assay, test compounds that inhibit OXA-48 catalytic activity are predicted to reduce nitrocefin quenching of plate fluorescence, resulting in a quantitative increase in well fluorescence (ON-system for inhibitors). The nitrocefin-based epi-absorbance readout system has been successfully applied in HTS campaigns on other β-lactamases, such as IMP-1 and VIM-2, with the identification of inhibitors belonging to novel scaffolds displaying a favourable degree of selectivity and sub-micromolar potency.
The screening results were expressed as activity percent. […] Overall, the primary assay robustness was good, with Robust Z Prime factor (RZ′) equal to 0.86.
In total, 256 active molecules (125 from the subset and 131 from the full set) were then assayed in dose–response at eight concentrations from 60 to 0.002 µM with interplate triplicate data points.
The blaOXA gene coding for the OXA-48 ß-lactamase, originally cloned from the K. pneumonia 11978 (a clinical isolate from Istanbul Faculty Hospital, Istanbul, Turkey) was overexpressed via a T7 expression system in E. coli BL21(DE3), and its product, native protein, (final yield of 30 mg/L of culture) was subjected to several purification steps, including ion-exchange chromatography with Q-Sepharose and 20 mM Tris-HCl buffer (pH 9.0), followed by chromatography with S-Sepharose columns and 100 mM sodium phosphate buffer (pH 5.8). Elution of the beta-lactamase was performed with a K2SO4 gradient. Peaks of beta-lactamase activity were concentrated and were dialyzed with 100 mM phosphate buffer (pH 7.0). The OXA-48 enzyme was purified to homogeneity (with a degree of purity around 95.4%.)-as measured by 12% SDS PAGE [23]. OXA-48 protein stock solution (2 mg/mL) was finally prepared in 20 mM Hepes (pH 8,1). OXA-48 β-lactamase specific activity was measured by following the hydrolysis of 100 μM nitrocefin (ε: 17,000 M-1 cm^−1 at 482 nm; Δε: 15,000 M-1 cm^−1 at 482 nm) and corresponding to 60.45 μmoles min^−1 mg^−1 of OXA-48 (kcat = 28.85 s^−1) enzyme. A MW of 28,147 g/mol, calculated from the enzyme sequence was confirmed by MALDI-TOF analysis with a Mass error of ± 2.8 Da.
The primary assay was developed to monitor the enzymatic activity of OXA-48 taking advantage of the spectroscopic properties of white microtiter plates (Optiplate-384, PerkinElmer, #6007290), as indicated by Zuck et al.. Nitrocefin is chromogenic substrate for beta-lactamases with λmax = 395 nm (yellow). Upon hydrolysis by OXA-48, nitrocefin yields (2R)-2-[(R)-carboxy[2-(thiophen-2-yl)acetamido]methyl]-5-[(E)-2-(2,4-dinitrophenyl)ethenyl]-3,6-dihydro-2H-1,3-thiazine-4-carboxylic acid, with increased absorbance properties at λmax = 495 nm. Spectroscopic features of the reaction product are exploited to quench the plate intrinsic fluorescence by absorbing the plate’s emission light, which can be monitored by exciting the reaction at 485 nm and recording the emission at 520 nm. Therefore, the primary assay for HTS was an ON-assay, in which compounds targeting OXA-48 were predicted to elicit an increase of the fluorescence signal.
The primary assay was performed in reaction buffer (20 mM Hepes pH 8.0, 12.5 mM NaCl, 0.005% BSA, 0.0005% Brij-35) in the presence of 0.0014 ng/µL OXA-48 and 25 µM nitrocefin in a final volume of 20 µL/well in 384 MTP format. […]

Experiment [2] concerns the target T1, OXA-48. Put plainly: Time-dependent inhibition of OXA-48. The experiment is classed as biochemical. The note with it: for dependence of AC50 on preincubation time with OXA-48: preincubation 0, 15, 30, 60, 90, 120, 180, 240 min. How it is done: On this basis, compounds ID1 and ID2 as well as the irreversible reference inhibitor tazobactam were tested in dose–response against OXA-48 lactamase, by pre-incubating the compounds with the enzyme at different time points (0, 15, 30, 60, 90, 120, 180, 240 min) before starting the reaction upon addition of the nitrocefin substrate.
Experimental conditions were identical to the ones applied for the primary assay for HTS: 20 μL of 2X compounds with 1% DMSO; 10 μL 4X enzyme (0.0014 ng/µL OXA-48 final concentration) were dispensed into preincubation plate. The reaction buffer was: 20 mM Hepes pH 8.0, 12.5 mM NaCl, 0.005% BSA-pf, 0.0005% Brij-35.
Preincubation time was for a period spanning from 0 up to 240′ at rt between enzyme and compounds and for 15′ at rt between enzyme and control wells. The reactions were started by transferring of 15 μL of enzyme-compounds or enzyme-control from preincubation plate into assay plate adding 5 μL 4X nitrocefin substrate (25 µM final concentration) at different time points, at 0 (i.e., no preincubation)–15–30–60–90–120–180–240 min of preincubation between OXA-48 and compounds. Reading was at PHERAstar (BMG Labtechnologies), in kinetic for up to 60′ (λex: 485 nm; λem: 520 nm). Data were analyzed to determine the respective AC50 values obtained at all the tested preincubation time points.
b. If the AC50 value was inversely proportional to the preincubation time with OXA-48, the compound was assigned as non-reversible inhibitor.

T1 sequence (Q6XEC0 23-265, looked up): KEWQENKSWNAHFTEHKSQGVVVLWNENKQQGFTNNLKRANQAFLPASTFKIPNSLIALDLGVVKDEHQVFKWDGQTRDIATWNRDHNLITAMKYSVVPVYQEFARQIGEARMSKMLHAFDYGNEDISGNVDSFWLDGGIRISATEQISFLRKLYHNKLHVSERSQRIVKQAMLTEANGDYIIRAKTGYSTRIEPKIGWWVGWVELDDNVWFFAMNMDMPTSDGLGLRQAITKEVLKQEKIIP

Regarding `C[C@]1(Cn2ccnn2)[C@H](C(=O)O)N2C(=O)C[C@H]2S1(=O)=O` [tazobactam, reference compound], the AC50 in experiment [1] is 840 nM. Moreover, in experiment [2] (plateau after 90 min of preincubation), the “AC50 after preincubation relative to AC50 without preincubation” value is “almost six-fold lower”. Also, the “dependence of AC50 on preincubation time with OXA-48” value (from here on “dependence of AC50”) in experiment [2] is “inversely proportional time-dependent inhibition”.

Compound `CCc1ccc(-c2n[nH]c3nc(-c4ccc(C(=O)O)cc4)cc(C(=O)O)c23)cc1` [ID2] registered an AC50 in experiment [1] of 990 nM. Further, the “dependence of AC50” value in experiment [2] is given as “independent on the preincubation time”.

In experiment [1], `O=C(O)c1ccc(C=Nn2c(S)nnc2-c2ccccc2)cc1` [ID1] had an AC50 of 1140 nM. Further, the “dependence of AC50” value in experiment [2] was “independent on the preincubation time”.
